Test results from ChEMBL document CHEMBL2417410, “Selectivity data: assessment, predictions, concordance, and implications” (J Med Chem, 2013).

What was measured:
[1] = target: Cyclin-dependent kinase 9 (Homo sapiens, UniProt P50750)
[2] = target: Serine/threonine-protein kinase pim-1 (Homo sapiens, UniProt P11309); assay: Inhibition of PIM1 (unknown origin)
Sequence of Serine/threonine-protein kinase pim-1 (P11309 whole entry): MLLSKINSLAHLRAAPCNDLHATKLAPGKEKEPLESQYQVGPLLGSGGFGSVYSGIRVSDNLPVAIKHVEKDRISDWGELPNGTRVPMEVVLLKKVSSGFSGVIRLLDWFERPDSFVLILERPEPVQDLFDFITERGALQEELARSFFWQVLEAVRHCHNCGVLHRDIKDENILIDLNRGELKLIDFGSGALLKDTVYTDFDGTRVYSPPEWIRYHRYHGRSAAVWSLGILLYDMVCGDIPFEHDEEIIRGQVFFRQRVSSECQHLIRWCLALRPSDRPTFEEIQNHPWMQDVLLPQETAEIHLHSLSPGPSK

Sequence of Cyclin-dependent kinase 9 (P50750 whole entry): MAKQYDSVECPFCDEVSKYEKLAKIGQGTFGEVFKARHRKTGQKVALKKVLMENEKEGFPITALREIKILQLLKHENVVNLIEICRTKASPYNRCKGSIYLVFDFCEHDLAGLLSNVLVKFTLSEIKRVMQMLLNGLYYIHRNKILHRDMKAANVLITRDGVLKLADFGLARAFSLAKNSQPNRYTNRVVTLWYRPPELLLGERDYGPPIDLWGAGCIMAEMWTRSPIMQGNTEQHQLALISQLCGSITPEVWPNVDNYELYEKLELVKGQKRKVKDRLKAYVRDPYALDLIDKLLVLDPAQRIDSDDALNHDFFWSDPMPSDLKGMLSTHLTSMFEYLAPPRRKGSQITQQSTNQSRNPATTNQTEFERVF

| IC50 [1] | IC50 [2] | SMILES |
| --- | --- | --- |
| 0.01 µM | – | NC(=O)c1cc(-c2ccnc(N)n2)[nH]c1-c1ccc(Cl)cc1Cl |
| 0.631 µM | – | Cc1n[nH]c2ccc(-c3cccnc3)cc12 |
| – | 0.0501 µM | CN1CCN(c2nc(C3=C(c4c[nH]c5ccccc45)C(=O)NC3=O)c3ccccc3n2)CC1 [SOTRASTAURIN] |
